Measured values: ChEMBL document CHEMBL3425509, “Design, synthesis, and biological evaluation of benzofuran- and 2,3-dihydrobenzofuran-2-carboxylic acid N-(substituted)phenylamide derivatives as anticancer agents and inhibitors of NF-κB” (Bioorg Med Chem Lett, 2015)

How the values were obtained:
ACHN = test: Cytotoxicity against human ACHN cells assessed as cell viability at 10 uM after 72 hrs by sulforhodamine B assay relative to control; assay type: functional; conditions: read-out: Activity
[1] = Cytotoxicity against human HCT15 cells assessed as cell viability at 10 uM after 72 hrs by sulforhodamine B assay relative to control; assay type: functional; conditions: HCT-15, 72 h, read-out: Activity
MDA-MB-231 = test: Cytotoxicity against human MDA-MB-231 cells assessed as cell viability at 10 uM after 72 hrs by sulforhodamine B assay relative to control; assay type: functional; conditions: MDA-MB-231, 72 h, read-out: Activity
NCI-H23 = test: Cytotoxicity against human NCI-H23 cells assessed as cell viability at 10 uM after 72 hrs by sulforhodamine B assay relative to control; assay type: functional; conditions: NCI-H23, 72 h, read-out: Activity
[2] = Cytotoxicity against human NUGC3 cells assessed as cell viability at 10 uM after 72 hrs by sulforhodamine B assay relative to control; assay type: functional; conditions: NUGC-3, 72 h, read-out: Activity
[3] = Cytotoxicity against human PC3 cells assessed as cell viability at 10 uM after 72 hrs by sulforhodamine B assay relative to control; assay type: functional; conditions: PC-3, 72 h, read-out: Activity
[4] = molecular target: Nuclear factor NF-kappa-B complex (Homo sapiens) (UniProt Q00653+P19838+Q04206); test: Inhibition of NF-kappaB (unknown origin) transcriptional activity in LPS-induced mouse RAW264.7 cells at 30 uM after 1 hr by secreted alkaline phosphatase assay relative to control; assay type: cell-based
Sequence of Nuclear factor NF-kappa-B complex (Homo sapiens) (P19838 whole entry, looked up): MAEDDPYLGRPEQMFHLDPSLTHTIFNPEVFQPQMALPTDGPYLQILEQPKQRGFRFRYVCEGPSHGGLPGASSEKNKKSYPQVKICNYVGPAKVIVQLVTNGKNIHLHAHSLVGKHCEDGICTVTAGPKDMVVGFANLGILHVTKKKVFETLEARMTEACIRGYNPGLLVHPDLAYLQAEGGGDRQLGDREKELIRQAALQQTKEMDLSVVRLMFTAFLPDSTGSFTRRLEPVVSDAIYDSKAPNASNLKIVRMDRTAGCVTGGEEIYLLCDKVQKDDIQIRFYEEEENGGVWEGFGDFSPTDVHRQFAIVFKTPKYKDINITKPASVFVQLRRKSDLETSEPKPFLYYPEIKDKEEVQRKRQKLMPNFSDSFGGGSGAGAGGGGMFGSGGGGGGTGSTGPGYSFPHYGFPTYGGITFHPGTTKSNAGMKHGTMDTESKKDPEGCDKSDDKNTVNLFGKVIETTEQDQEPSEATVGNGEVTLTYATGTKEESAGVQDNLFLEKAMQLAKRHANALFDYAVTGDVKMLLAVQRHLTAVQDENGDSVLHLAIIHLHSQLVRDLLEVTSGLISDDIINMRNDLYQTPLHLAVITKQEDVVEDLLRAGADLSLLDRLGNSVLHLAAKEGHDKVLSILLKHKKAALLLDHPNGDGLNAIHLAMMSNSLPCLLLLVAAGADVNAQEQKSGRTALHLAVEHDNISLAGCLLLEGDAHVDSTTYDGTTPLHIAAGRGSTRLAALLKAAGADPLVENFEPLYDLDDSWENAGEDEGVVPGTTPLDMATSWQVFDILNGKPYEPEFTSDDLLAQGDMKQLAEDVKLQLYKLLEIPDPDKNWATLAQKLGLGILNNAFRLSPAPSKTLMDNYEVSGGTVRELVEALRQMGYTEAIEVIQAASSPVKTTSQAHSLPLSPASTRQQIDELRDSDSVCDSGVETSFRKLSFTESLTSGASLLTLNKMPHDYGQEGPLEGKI
Sequence of Nuclear factor NF-kappa-B complex (Homo sapiens) (Q00653 whole entry, looked up): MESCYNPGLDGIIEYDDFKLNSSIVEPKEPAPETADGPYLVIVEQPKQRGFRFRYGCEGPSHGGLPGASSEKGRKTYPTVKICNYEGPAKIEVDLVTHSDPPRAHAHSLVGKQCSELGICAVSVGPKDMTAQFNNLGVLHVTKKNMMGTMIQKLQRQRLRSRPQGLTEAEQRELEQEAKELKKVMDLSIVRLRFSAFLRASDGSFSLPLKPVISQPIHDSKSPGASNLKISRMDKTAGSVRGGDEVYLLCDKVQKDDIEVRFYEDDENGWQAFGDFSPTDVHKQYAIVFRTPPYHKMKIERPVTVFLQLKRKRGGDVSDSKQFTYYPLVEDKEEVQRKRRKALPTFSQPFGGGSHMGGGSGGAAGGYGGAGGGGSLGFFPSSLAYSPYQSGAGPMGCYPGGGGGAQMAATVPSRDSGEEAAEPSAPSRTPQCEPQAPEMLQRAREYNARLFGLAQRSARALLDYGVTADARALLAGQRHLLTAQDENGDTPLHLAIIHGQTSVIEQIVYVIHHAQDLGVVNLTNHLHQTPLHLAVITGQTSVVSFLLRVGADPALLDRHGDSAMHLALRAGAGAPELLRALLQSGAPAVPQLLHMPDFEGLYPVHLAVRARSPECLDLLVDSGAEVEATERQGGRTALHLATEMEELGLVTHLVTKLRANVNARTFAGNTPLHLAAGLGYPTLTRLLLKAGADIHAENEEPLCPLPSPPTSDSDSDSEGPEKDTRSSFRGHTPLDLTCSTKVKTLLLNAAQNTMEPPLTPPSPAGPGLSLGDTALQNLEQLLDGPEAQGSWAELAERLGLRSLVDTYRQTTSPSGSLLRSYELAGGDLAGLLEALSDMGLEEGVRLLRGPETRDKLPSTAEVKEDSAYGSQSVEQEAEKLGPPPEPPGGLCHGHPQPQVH
Sequence of Nuclear factor NF-kappa-B complex (Homo sapiens) (Q04206 whole entry, looked up): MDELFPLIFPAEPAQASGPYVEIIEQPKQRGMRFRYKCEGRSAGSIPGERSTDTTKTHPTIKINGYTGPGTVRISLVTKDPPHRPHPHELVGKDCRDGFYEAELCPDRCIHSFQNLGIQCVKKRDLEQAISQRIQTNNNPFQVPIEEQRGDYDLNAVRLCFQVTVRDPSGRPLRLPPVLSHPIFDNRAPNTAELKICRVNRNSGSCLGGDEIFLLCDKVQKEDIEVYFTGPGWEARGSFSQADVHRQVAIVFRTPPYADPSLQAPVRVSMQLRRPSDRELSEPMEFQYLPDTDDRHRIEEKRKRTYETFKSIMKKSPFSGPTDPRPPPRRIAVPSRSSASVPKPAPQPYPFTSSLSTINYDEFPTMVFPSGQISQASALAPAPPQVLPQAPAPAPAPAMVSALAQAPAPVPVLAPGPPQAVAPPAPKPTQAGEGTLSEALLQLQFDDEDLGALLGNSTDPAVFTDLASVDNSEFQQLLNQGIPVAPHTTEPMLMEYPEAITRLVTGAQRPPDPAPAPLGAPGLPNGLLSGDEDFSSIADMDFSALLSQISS

[5] = molecular target: Nuclear factor NF-kappa-B complex (Homo sapiens, UniProt P19838+Q00653+Q04206); test: Inhibition of NF-kappaB (unknown origin) transcriptional activity in LPS-induced mouse RAW264.7 cells after 1 hr by secreted alkaline phosphatase assay; assay type: cell-based
Sequence of Nuclear factor NF-kappa-B complex (P19838 1-433 limits assumed): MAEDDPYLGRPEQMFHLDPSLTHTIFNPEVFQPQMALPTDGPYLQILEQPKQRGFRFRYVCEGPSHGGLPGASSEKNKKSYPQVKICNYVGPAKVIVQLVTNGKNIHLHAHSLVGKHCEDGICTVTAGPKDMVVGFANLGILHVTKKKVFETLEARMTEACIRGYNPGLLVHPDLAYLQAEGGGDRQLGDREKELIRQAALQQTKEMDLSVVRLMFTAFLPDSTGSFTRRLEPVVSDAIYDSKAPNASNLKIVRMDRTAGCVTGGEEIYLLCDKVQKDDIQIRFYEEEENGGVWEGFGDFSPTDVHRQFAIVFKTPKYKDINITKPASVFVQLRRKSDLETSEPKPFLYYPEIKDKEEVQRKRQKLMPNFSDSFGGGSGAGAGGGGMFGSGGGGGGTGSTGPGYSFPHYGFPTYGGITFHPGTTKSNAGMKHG
Sequence of Nuclear factor NF-kappa-B complex (Q00653 1-454 limits assumed): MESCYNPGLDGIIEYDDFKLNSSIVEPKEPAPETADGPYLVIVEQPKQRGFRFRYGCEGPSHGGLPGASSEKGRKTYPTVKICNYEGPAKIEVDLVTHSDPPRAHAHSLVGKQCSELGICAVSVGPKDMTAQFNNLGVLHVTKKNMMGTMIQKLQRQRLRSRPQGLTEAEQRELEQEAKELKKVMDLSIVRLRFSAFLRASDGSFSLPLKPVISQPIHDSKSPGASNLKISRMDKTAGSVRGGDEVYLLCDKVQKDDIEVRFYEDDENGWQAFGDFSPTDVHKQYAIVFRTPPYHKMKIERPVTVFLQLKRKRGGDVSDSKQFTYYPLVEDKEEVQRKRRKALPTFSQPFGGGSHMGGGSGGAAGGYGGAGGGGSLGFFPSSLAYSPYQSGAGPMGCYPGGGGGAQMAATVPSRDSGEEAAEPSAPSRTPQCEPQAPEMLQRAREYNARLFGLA
Sequence of Nuclear factor NF-kappa-B complex (Q04206 whole entry): as the sequence (Q04206 whole entry, looked up) above

[6] = Cytotoxicity against human PC3 cells assessed as growth inhibition after 72 hrs by sulforhodamine B assay; assay type: functional; conditions: PC-3, 72 h

Structure (SMILES)	viability at 10 µM (ACHN)	viability at 10 µM [1]	viability at 10 µM (MDA-MB-231)	viability at 10 µM (NCI-H23)	viability at 10 µM [2]	viability at 10 µM [3]	inhibition [4]	IC50 [5]	GI50 [6]
O=C(Nc1cc(C(F)(F)F)cc(C(F)(F)F)c1)c1cc2ccccc2o1	95%	98%	98%	101%	98%	110%	51.5%	34 µM	
O=C(Nc1cccc(O)c1)C1Cc2ccccc2O1 (centres undefined)	125%	97%	63%	60%	110%	4%	17%		3.97 µM
COc1cc2c(cc1O)CCC(C(=O)Nc1ccccc1)O2 (centres undefined)	109%	105%	81%	86%	99%	90%		37.2 µM	
Cc1cc(C)cc(NC(=O)C2Cc3ccccc3O2)c1 (centres undefined)	136%	91%	97%	97%	95%	94%	34%		
Cc1cccc(NC(=O)C2Cc3ccccc3O2)c1 (centres undefined)	145%	99%	95%	98%	108%	96%	25%		
COc1cc(NC(=O)c2cc3ccccc3o2)cc(OC)c1	102%	95%	106%	102%	90%	92%	63%		
Cc1cccc(NC(=O)c2cc3ccccc3o2)c1	93%	87%	106%	101%	99%	94%	38%		
O=C(Nc1ccccc1O)c1cc2ccccc2o1	84%	58%	85%	86%	84%	68%	23%		
O=C(Nc1cc(Cl)cc(Cl)c1)c1cc2ccccc2o1	99%	95%	102%	100%	93%	99%	20%		
O=C(Nc1ccccc1Cl)c1cc2ccccc2o1	76%	75%	76%	91%	86%	91%	49.5%		
COc1ccc(NC(=O)C2Cc3ccccc3O2)cc1 (centres undefined)	140%	89%	94%	102%	108%	81%	22.5%		
O=C(Nc1cc(Cl)ccc1Cl)C1Cc2ccccc2O1 (centres undefined)	101%	77%	74%	90%	105%	84%	42.5%		
O=C(Nc1cc(Cl)ccc1Cl)c1cc2ccccc2o1	96%	81%	101%	96%	89%	97%	36.5%		
O=C(Nc1ccc(Cl)c(Cl)c1)c1cc2ccccc2o1	95%	96%	80%	100%	102%	113%	40%		
O=C(Nc1cccc([N+](=O)[O-])c1)C1Cc2ccccc2O1 (centres undefined)	109%	83%	92%	95%	83%	77%	40%		
O=C(Nc1cccc(Cl)c1)C1Cc2ccccc2O1 (centres undefined)	134%	97%	80%	101%	101%	91%	43.5%		
